Experimental findings from PubChem BioAssay (NCI) are described below.

Some test systems named below: HL-60(TB) leukemia; SNB-78 CNS; KM20L2 colon; 786-0 renal; SN12C renal; TK-10 renal; A498 renal; SNB-19 CNS; SR leukemia; DLD-1 colon; HCT-116 colon; MDA-MB-435.
Assay in all cases: NCI-60 cell line screen, 48 h

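48-hour exposure; five concentrations; linearly interpolated endpoints. At the TGI there is no net growth.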

Turning to `c1c(N2CCOCC2)ssc1=[N+]1CCOCC1`, the TGI with HL-60(TB) leukemia, with SNB-78 CNS, with KM20L2 colon, in the test on 786-0 renal, with SN12C renal and with TK-10 renal was > 100 µM throughout. The TGI in the test on A498 renal, in the test with SNB-19 CNS, in the test with SR leukemia, in the test with DLD-1 colon and with HCT-116 colon was > 100 µM each time.
Regarding `CC(=O)OC1CC2(O)C(CCC3(C)C(c4ccc(=O)oc4)CCC32O)C2(C)C1=CC(O)C1OC12` (centres undefined), the TGI in the test with HL-60(TB) leukemia was found to be 1.28 µM; in the test with SNB-78 CNS it was 0.279 µM; with KM20L2 colon it was 0.533 µM; in the test with SN12C renal it was 0.882 µM; in the test with A498 renal, 0.582 µM; in the test on SNB-19 CNS it was 0.461 µM. The results for the TGI with DLD-1 colon and in the test on HCT-116 colon were 0.179 µM and 0.216 µM, respectively.
Turning to `CCCO/N=[N+](\[O-])N(CC)CC`, the TGI with HL-60(TB) leukemia, with SNB-78 CNS, with KM20L2 colon, in the test on SN12C renal, in the test with TK-10 renal and in the test with A498 renal was > 100 µM throughout. Further, the TGI in the test with SNB-19 CNS, with SR leukemia and in the test with HCT-116 colon was > 100 µM throughout.
For `CCCCCCCCCCCCNC(=O)CCC(NC(=O)c1ccc(N(C)Cc2cnc3nc(N)nc(N)c3n2)cc1)C(=O)NCCCCCCCCCCCC` (centres undefined), the TGI in the test on HL-60(TB) leukemia is 87.1 µM; in the test with 786-0 renal it was > 100 µM; in the test with MDA-MB-435, > 100 µM; in the test on SN12C renal, > 100 µM; in the test on TK-10 renal, > 100 µM; in the test with A498 renal, > 100 µM. Also, the TGI is 72.1 µM in the test on SNB-19 CNS, 32.3 µM in the test with SR leukemia and > 100 µM in the test on HCT-116 colon.
With `O=C1c2cccnc2S(=O)(=O)N1c1ccc([N+](=O)[O-])cc1`, the TGI with HL-60(TB) leukemia, in the test with 786-0 renal, in the test on MDA-MB-435, with SN12C renal, with TK-10 renal and with A498 renal was > 100 µM throughout. In addition, the TGI with SNB-19 CNS, in the test on SR leukemia and in the test on HCT-116 colon was > 100 µM in each case.
As to `COC(=O)C1=C(C)NC(C)=C(C(=O)OC)C1c1cccc(N=O)c1`, the TGI turned out to be 25.8 µM in the test on HL-60(TB) leukemia; 30.3 µM with 786-0 renal; 29.7 µM with MDA-MB-435; 33.3 µM in the test with SN12C renal; 28.2 µM in the test with TK-10 renal; 98.2 µM in the test on A498 renal. For the same compound, the TGI is > 100 µM with SNB-19 CNS, > 100 µM with SR leukemia and 23.9 µM in the test on HCT-116 colon.
Consider `CC(=O)C1(O)CCC2(O)C3(O)CC=C4CC(O)CCC4(C)C3CC(OC(=O)c3ccc(O)cc3)C12C` (centres undefined), for which the TGI with HL-60(TB) leukemia, with 786-0 renal, in the test with MDA-MB-435, in the test with SN12C renal, in the test with TK-10 renal and in the test on A498 renal was > 100 µM in each case. The TGI in the test with SNB-19 CNS, in the test on SR leukemia and with HCT-116 colon was > 100 µM in each case.
On to `COc1cc2c3cc1Oc1c(OC)c(OC)cc4c1C(Cc1ccc(O)c(c1)Oc1ccc(cc1)CC3N(C)CC2)CN(C)C4` (centres undefined), for which the TGI with HL-60(TB) leukemia turned out to be 6.11 µM; with 786-0 renal, 22.9 µM; with MDA-MB-435, 23.7 µM; with SN12C renal, 34.7 µM; in the test with TK-10 renal it was 32.2 µM; in the test with A498 renal, 31.2 µM. Moreover, the results for the TGI in the test on SNB-19 CNS, in the test with SR leukemia and in the test with HCT-116 colon were 84.5 µM, 41.7 µM and 19 µM, respectively.
In the case of `Cc1cn(CCCCCOC(=O)NC(CCCNC(N)=O)C(=O)O)c(=O)[nH]c1=O` (centres undefined), the TGI in the test on HL-60(TB) leukemia, in the test on 786-0 renal, with MDA-MB-435, in the test with SN12C renal, with TK-10 renal and with A498 renal was > 100 µM each time. Moreover, the TGI in the test with SNB-19 CNS, in the test on SR leukemia and in the test with HCT-116 colon was > 100 µM each time.
As for `COc1cccc(N2C(=O)CS(=O)(=O)C2c2cccc(Oc3ccccc3)c2)c1` (centres undefined), the TGI in the test on HL-60(TB) leukemia was > 100 µM; in the test on 786-0 renal it was 44.4 µM; in the test with MDA-MB-435, > 100 µM; in the test with SN12C renal, 38.2 µM; with TK-10 renal it was 47.4 µM; in the test with A498 renal it was 36.7 µM. Moreover, the TGI is > 100 µM in the test with SNB-19 CNS, 13.1 µM with SR leukemia and 24.7 µM in the test on HCT-116 colon.
Take `O=[N+]([O-])/C(Cl)=C(/C(Cl)=C(Cl)Cl)N1CCCCC1`: the TGI with HL-60(TB) leukemia was 4.83 µM; in the test on 786-0 renal, 23.4 µM; with MDA-MB-435 it was 20.8 µM; with SN12C renal it was 27.4 µM; with TK-10 renal, 35.8 µM; with A498 renal it was 33.4 µM. Besides, the results for the TGI with SNB-19 CNS, with SR leukemia and in the test with HCT-116 colon were 54.1 µM, 7.5 µM and 18.9 µM, respectively.
Turning to `COc1ccc(OC)c(NC(=O)C(=O)C(C(=O)c2ccccc2F)C2OC(=O)c3ccccc32)c1` (centres undefined), the TGI in the test with HL-60(TB) leukemia, with SNB-78 CNS, with KM20L2 colon, in the test on SN12C renal, with TK-10 renal and in the test with A498 renal was > 100 µM throughout. Further, the TGI with SNB-19 CNS is > 100 µM; with SR leukemia, 89.1 µM; in the test with DLD-1 colon, > 100 µM; with HCT-116 colon, > 100 µM.
For `CC(O)CNC1=CC(=O)C(=O)c2ccccc21` (centres undefined), the TGI was 84.4 µM in the test on HL-60(TB) leukemia; 32.2 µM in the test with 786-0 renal; 23.9 µM with MDA-MB-435; 34.9 µM with SN12C renal; 70.4 µM in the test with TK-10 renal; 62.9 µM with A498 renal. In addition, the figures for the TGI with SNB-19 CNS, in the test with SR leukemia and in the test on HCT-116 colon were 32 µM, > 100 µM and 33.9 µM, respectively.
